This is an account of results in patent publication US4495202A, “Terphenyl derivatives and pharmaceutical uses thereof” (Eli Lilly and Company, priority 1983, dated 1985).

Experiment [1] has as its system Cox standard strain albino male mice. Description: standard mouse writhing assay (acetic acid-induced writhing). The class given is in vivo. As for the experimental part:
The analgesic activity of a number of compounds provided by this invention has been determined in the standard mouse writhing assay. Writhing, which is characterized by contraction of the abdominal musculature, extension of the hindlegs, and rotation of the trunk, was induced in Cox standard strain albino male mice. […] Each treatment group consisted of five mice. The total number of writhes for the treatment group was determined during a 10-minute observation starting five minutes after acetic acid administration. […] Table I which follows presents typical test results obtained with certain of the compounds of this invention. The results in the mouse writhing assay are presented as the effective oral (p.o.) dose in mg./kg. of the tested compound required to inhibit induced writhing in the test animals by fifty percent (ED50).

The subject of experiment [2] is male Lewis-Wistar rats. The experiment in a line: Established adjuvant-induced arthritis test in rats. The class given is in vivo. Particulars: rat, days 15-29, from areas under the curves of uninjected paw volume.
Where [3] appears, read: 3 h, oral gavage in corn oil-acacia emulsion (5%), three hours before acetic acid (0.60 percent, i.p.), inhibition of writhing by fifty percent, read-out: Mouse Writhing ED50.
[4] abbreviates: 25 mg./kg. p.o. × 15, corn oil-acacia emulsion by gavage.
Where [5] appears, read: 10 mg./kg. p.o. × 15, corn oil-acacia emulsion by gavage.

Where two headings read alike, the source gives them in different places.

Take `COc1ccc(-c2ccc(-c3ccc(Br)cc3)cc2-c2ccc(OC)cc2)cc1` [Example 4, 4'-(4-Bromophenyl)-4,4"-dimethoxy-1,1':2',1"-terphenyl]: the ED50 in experiment [1] (setting [3]) worked out at 72.8 mg/kg. Further, in experiment [2] (setting [4]), the “% Inhibition of Uninjected Paw Volume Inflammation, Days 14 through 30” value (shortened to “% Inhibition”) is reported as 34%.
Regarding `COc1ccc(-c2ccc(C(F)(F)F)cc2-c2ccc(OC)cc2)cc1` [Example 6, 4'-Trifluoromethyl-4,4"-dimethoxy-1,1':2',1"-terphenyl], the ED50 in experiment [1] (setting [3]) was 5.6 mg/kg. Further, the “% Inhibition” value in experiment [2] (setting [5]) came out at 48%.
As for `COc1ccc(-c2ccc(-c3ccccc3)cc2-c2ccc(OC)cc2)cc1` [Example 2, 4'-Phenyl-4,4"-dimethoxy-1,1':2',1"-terphenyl], the ED50 in experiment [1] (setting [3]) is 14.6 mg/kg. In addition, in experiment [2] (setting [4]), the “% Inhibition” value came to 13%.
Regarding `COc1ccc(-c2ccc(-c3ccc(Cl)cc3)cc2-c2ccc(OC)cc2)cc1` [Example 3, 4'-(4-Chlorophenyl)-4,4"-dimethoxy-1,1':2',1"-terphenyl], the median effective dose (ED50) in experiment [1] (setting [3]) came out at 14.2 mg/kg. Further, the figures for the “% Inhibition” value in experiment [2] (setting [5]) and in experiment [2] (setting [4]) were 31% and 52%, respectively.
On to `COc1ccc(-c2ccc(-c3ccc(F)cc3)cc2-c2ccc(OC)cc2)cc1` [Example 1, 4'-(4-Fluorophenyl)-4,4"-dimethoxy-1,1':2',1"-terphenyl], for which the ED50 is 11.8 mg/kg in experiment [1] (setting [3]) and 3.9 mg/kg in experiment [1] (4 h, oral, at four hours post dosing, read-out: Mouse Writhing ED50 at four hours post dosing). In addition, the “% Inhibition” value in experiment [2] (setting [4]) was determined as 55%.
Consider `COc1ccc(-c2ccc(-c3cccc(F)c3)cc2-c2ccc(OC)cc2)cc1` [Example 5, 4'-(3-Fluorophenyl)-4,4"-dimethoxy-1,1':2',1"-terphenyl], for which the ED50 in experiment [1] (setting [3]) amounted to 8.9 mg/kg. In addition, the “% Inhibition” value in experiment [2] (setting [4]) amounted to 40%.
